Peptide text beside a SMILES is read from it. * marks the point of attachment. X2 = OC[C@H]1O[C@@H](n2cnc3c(N*)ncnc32)[C@@H](O)[C@@H]1O

The test has as its target Dipeptidyl peptidase 4 (Homo sapiens) (UniProt P27487). Kind of test: Ratio of Vmax/Km for human recombinant CD26 assessed as hydrolysis.

Dipeptidyl peptidase 4 (Homo sapiens), sequence (P27487 whole entry, looked up): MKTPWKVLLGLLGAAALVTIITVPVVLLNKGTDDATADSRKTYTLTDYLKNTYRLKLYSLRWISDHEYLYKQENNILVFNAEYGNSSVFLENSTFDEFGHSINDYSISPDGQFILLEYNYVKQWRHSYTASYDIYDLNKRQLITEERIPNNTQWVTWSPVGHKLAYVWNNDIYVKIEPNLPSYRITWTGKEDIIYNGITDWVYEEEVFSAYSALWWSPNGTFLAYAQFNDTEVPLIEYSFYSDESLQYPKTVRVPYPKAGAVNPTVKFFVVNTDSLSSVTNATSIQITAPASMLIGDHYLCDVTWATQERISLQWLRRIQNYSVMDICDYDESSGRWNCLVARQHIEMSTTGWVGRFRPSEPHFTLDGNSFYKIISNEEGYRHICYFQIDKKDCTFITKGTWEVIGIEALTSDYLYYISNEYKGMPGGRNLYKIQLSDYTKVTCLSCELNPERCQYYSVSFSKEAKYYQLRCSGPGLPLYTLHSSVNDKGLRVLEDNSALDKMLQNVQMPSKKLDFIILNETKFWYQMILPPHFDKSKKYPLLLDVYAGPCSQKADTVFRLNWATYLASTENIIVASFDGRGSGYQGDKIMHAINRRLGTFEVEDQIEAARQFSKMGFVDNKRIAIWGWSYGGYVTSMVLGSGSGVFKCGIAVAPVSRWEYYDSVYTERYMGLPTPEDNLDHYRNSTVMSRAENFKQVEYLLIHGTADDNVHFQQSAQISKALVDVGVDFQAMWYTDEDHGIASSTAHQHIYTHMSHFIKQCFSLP

For `N[C@@H](CC(=O)O)C(=O)N1CCC[C@H]1C(=O)Nc1ccc2ncccc2c1`, the Vmax/Km was 0.13.
As to `COc1cccc2c1C(=O)c1c(O)c3c(c(O)c1C2=O)C[C@@](O)(C(=O)CO)C[C@@H]3O[C@H]1C[C@H](NC(=O)[C@@H]2CCCN2C(=O)[C@@H](N)C(C)C)[C@H](O)[C@H](C)O1`, the Vmax/Km is 0.5.
The value for `CC(C)[C@H](N)C(=O)N1CCC[C@H]1C(=O)Nc1ccc2ncccc2c1` was 1.3.
As to `CC(C)[C@H](N)C(=O)N1CCC[C@H]1C(=O)N[C@H](C(=O)N1CCC[C@H]1C(=O)Nc1ncnc2c1ncn2[C@@H]1O[C@H](CO)[C@@H](O)[C@@H]1O)C(C)C` (H-VPVP-X2), the Vmax/Km turned out to be 0.18.

Source of the values: ChEMBL document CHEMBL1156792, “Application of the dipeptidyl peptidase IV (DPPIV/CD26) based prodrug approach to different amine-containing drugs” (J Med Chem, 2010).
